Our source for the IC50 values is patent publication US9290511B2, “Thieno-pyrimidines, useful as potassium channel inhibitors” (XENTION LIMITED, priority 2011, dated 2016).

Where only a bound is given, the exact number is not on record here.

Usually IC50 stands for the concentration needed to halve the response being measured.

This assay has as its target T1, Kir3.1/3.4 (Rattus norvegicus, UniProt P48548+P63251).
T1 construct: expressed in transfected cells
T1 sequence (P63251 1-501): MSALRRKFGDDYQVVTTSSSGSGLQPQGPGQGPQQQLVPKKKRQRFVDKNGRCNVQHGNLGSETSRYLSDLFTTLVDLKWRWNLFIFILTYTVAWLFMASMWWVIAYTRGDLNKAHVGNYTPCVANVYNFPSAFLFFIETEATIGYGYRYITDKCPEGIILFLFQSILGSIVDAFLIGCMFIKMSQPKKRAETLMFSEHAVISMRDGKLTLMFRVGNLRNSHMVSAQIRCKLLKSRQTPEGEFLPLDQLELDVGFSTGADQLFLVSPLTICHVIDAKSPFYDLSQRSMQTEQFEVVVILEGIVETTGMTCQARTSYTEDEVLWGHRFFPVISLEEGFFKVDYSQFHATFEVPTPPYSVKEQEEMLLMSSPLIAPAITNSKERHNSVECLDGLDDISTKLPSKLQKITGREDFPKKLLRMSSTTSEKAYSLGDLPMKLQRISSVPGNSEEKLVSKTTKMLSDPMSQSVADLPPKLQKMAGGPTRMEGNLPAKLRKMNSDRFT
T1 sequence (P48548 1-419): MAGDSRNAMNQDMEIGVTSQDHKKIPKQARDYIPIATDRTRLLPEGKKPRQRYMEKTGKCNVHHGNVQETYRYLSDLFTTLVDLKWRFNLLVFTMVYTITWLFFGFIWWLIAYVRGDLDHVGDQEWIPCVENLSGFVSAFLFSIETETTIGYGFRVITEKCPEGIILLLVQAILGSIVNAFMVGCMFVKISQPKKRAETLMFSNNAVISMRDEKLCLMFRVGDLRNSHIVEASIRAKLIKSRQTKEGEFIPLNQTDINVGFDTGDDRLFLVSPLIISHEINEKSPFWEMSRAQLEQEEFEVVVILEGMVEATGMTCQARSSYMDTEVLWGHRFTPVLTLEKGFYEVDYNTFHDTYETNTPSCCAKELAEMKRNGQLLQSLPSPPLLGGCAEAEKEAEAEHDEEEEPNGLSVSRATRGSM
Nature of the assay: Kir3.1/3.4 Electrophysiology Method (manual whole-cell patch clamp). Format: cell-based. To be noted: Electrophysiology Method (TABLE 1). The procedure:
Compound activity against the recombinant G-protein activated inward rectifier current encoded by the heterotetramer Kir3.1/3.4 was assessed using manual whole-cell patch technique. The heterotetramer forms the pore-forming channel that conducts the acetylcholine/adenosine-activated potassium current in the heart.
For whole-cell patch-clamp studies, cells (Human Embryonic Kidney 293 stably transfected with rat Kir3.1/3.4) were seeded onto glass coverslips before recordings were made. Cells were seeded in sterile 30 mm Petri dishes at a density to enable isolated cells to be selected for patch clamp experiments. The dishes were stored in a humidified, gassed (5% CO2) incubator at 37° C. until use.
Whole-cell patch-clamp recordings of membrane currents were made following gigaohm seal formation between the patch electrode and the cell using HEKA EPC-9/10 amplifiers controlled by Pulse Software (Ver8.5x/8.6×/8.7×, HEKA, Germany). Coverslips seeded with cells were placed in a recording chamber mounted on the stage of an inverted microscope. During the experiment, the cell of interest was continuously superfused with bather solution delivered via a cannula placed in close proximity to the cell to enable control of the extracellular solution environment. Only those cells with a current <−500 pA (current at −140 mV) were used for experiments. During experiments, series resistance was compensated by a minimum of 70%.
Electrophysiology voltage-step protocols and analysis of data were performed as follows. Data was sampled at 5 kHz, and filtered with a −3 dB bandwidth of 2.5 kHz. Cells were held at a voltage of −60 mV. Currents were evoked by a depolarising voltage step to +60 mV (100 ms) before a ramp-repolarisation (0.4 V·s^−1) to −140 mV (100 ms) before returning to −60 mV. The command waveform was repeatedly applied every 10 s throughout the experiment. Mean currents during 1-99% of the time at −140 mV were analysed using Pulsefit software (v8.x, HEKA, Germany). The voltage protocol was repeatedly applied to achieve a stable current baseline in bather before the test substance was superfused via the cannula in close proximity to the cell under investigation. The test substance was allowed to equilibrate during which time voltage protocol was repeatedly applied and recorded. On reaching steady-state inhibition, the cell was superfused with an identical bather solution containing zero external potassium chloride (replaced by equimolar NaCl). The identical current measurement was made in the absence of potassium to assess the passive leak at −140 mV. The leak current was subtracted from the control and steady-state drug current values. The percentage inhibition of the leak-subtracted current in the presence of test substance was calculated relative to the control leak-subtracted pre-drug value. Internal patch-pipette solution contained in mM: 110 KCl, 20 NaCl, 0.9 GTPγS, 5 Mg-ATP, 5 EGTA, 10 HEPES, pH7.2 corrected with KOH. The external superfusate composition in mM was: 150 (or 160) NaCl, 10 (or 0) KCl, 3 CaCl2, 1 MgCl, 10 HEPES, pH 7.4 corrected with NaOH.
For orientation: In patch-clamp work, channel activity is measured electrically.

Regarding `c1ccc(-c2csc3ncnc(N4CCC(CN5CCC(N6CCCC6)C5)CC4)c23)cc1` (stereo not drawn) [Example 76, 5-phenyl-4-[4-[(3-pyrrolidin-1-ylpyrrolidin-1-yl)methyl]-1-piperidyl]thieno[2,3-d]pyrimidine], the concentration for half-maximal inhibition (IC50) was below 500 nM. Regarding “N,N-dimethyl-5-phenyl-thieno[2,3-d]pyrimidine-6-carboxamide [Example 339]”, the IC50 is below 500 nM. Compound `F[C@H]1CCN(CC2CCN(c3ncnc4scc(-c5ccccc5)c34)CC2)C1` [Example 92, 4-[4-[[(3S)-3-fluoropyrrolidin-1-yl]methyl]-1-piperidyl]-5-phenyl-thieno[2,3-d]pyrimidine] displayed an IC50 of 500 to 3000 nM. In the case of `CN(C)C1CCCN(CC2CCCN(c3ncnc4scc(-c5ccccc5)c34)C2)C1` (stereo not drawn) [Example 208], the IC50 is below 500 nM. Regarding `OC1(CN2CCCC2)CCN(c2ncnc3scc(-c4ccccc4)c23)CC1` [Example 195], the IC50 was below 500 nM. The same measure for `O=C(NCCN1CCCC1)C1CCN(c2ncnc3scc(-c4ccccc4)c23)C1` (stereo not drawn) [Example 270]: 500 to 3000 nM; for `CC(C)NC(=O)c1sc2ncnc(N3CCC(CN(C)C4CCN(C)C4)CC3)c2c1-c1ccccc1` (stereo not drawn) [Example 132]: below 500 nM. Compound `COCC1CCN(c2nc(NCCC3CCCN3C)nc3scc(C4CCCCC4)c23)CC1` (stereo not drawn) [Example 177] returned an IC50 of 500 to 3000 nM. Under `CC(=O)NC1CCN(c2nc(N3CCC(COCCN4CCOCC4)CC3)c3c(-c4ccccc4)csc3n2)C1` (stereo not drawn) [Example 259] stands below 500 nM; under `CC1CN(CC2CCN(c3ncnc4scc(C5CCCCC5)c34)CC2)CC(C)O1` (stereo not drawn) [Example 197], below 500 nM; under `OCc1sc2ncnc(N3CCC(COCCN4CCCC4)CC3)c2c1-c1ccccc1` [Example 281, [5-phenyl-4-[4-(2-pyrrolidin-1-ylethoxymethyl)-1-piperidyl]thieno[2,3-d]pyrimidin-6-yl]methanol], below 500 nM.

For `CC(C)c1csc2ncnc(N3CC4CC3CC4OCCN3CC4CC3CO4)c12` (stereo not drawn) [Example 292, 5-[2-[[2-(5-isopropylthieno[2,3-d]pyrimidin-4-yl)-2-azabicyclo[2.2.1]heptan-5-yl]oxy]ethyl]-2-oxa-5-azabicyclo[2.2.1]heptane], the 50% inhibitory concentration (IC50) was in the range of 500 to 3000 nM. The same measure for `OCC1CCCN1CC1CCN(c2ncnc3scc(-c4ccccc4)c23)CC1` (stereo not drawn) [Example 65, [1-[[1-(5-phenylthieno[2,3-d]pyrimidin-4-yl)-4-piperidyl]methyl]pyrrolidin-2-yl]methanol]: below 500 nM; for `NC(=O)[C@H]1CCCN1CCN1CCN(c2ncc3c(-c4ccccc4)csc3n2)CC1` [Example 147]: below 500 nM. The same measure for `CC(C)c1csc2ncnc(N3CC4CC3CC4OCCN3CC[C@H](F)C3)c12` (stereo partly drawn) [Example 294]: below 500 nM; for `FC(F)(F)c1nc(N2CCC(COCCN3CCCC3)CC2)c2c(-c3ccccc3)csc2n1` [Example 340, 5-phenyl-4-[4-(2-pyrrolidin-1-ylethoxymethyl)-1-piperidyl]-2-(trifluoromethyl)thieno[2,3-d]pyrimidine]: below 500 nM; for `CN1CCN(c2nc(N3CCC(CNC4CCC4)CC3)c3c(-c4ccccc4)csc3n2)CC1` [Example 116]: below 500 nM. As to `c1cc2c(N3C4CCC3COC4)nc(N3CCC(COCCN4CCCC4)CC3)nc2s1` [Example 302], the half-inhibitory concentration (IC50) is below 500 nM. On to `COCC1CCN(c2nc(CC(=O)N3CCCC3)nc3scc(-c4ccccc4)c23)CC1` [Example 183, 2-[4-[4-(methoxymethyl)-1-piperidyl]-5-phenyl-thieno[2,3-d]pyrimidin-2-yl]-1-pyrrolidin-1-yl-ethanone], for which the IC50 lay in the range of 500 to 3000 nM.

Turning to `CCCNCC1CCN(c2ncnc3scc(-c4ccccc4)c23)CC1` [Example 51, N-[[1-(5-phenylthieno[2,3-d]pyrimidin-4-yl)-4-piperidyl]methyl]propan-1-amine], the half-inhibitory concentration (IC50) lay in the range of 500 to 3000 nM.

As to `CC(C)c1csc2nc(N3CCC(COCCN4CCCC4)CC3)ncc12` [Example 157], the IC50 was below 500 nM. Compound `COc1ccccc1-c1csc2ncnc(N3CCC(COCCN4CCCC4)CC3)c12` [Example 329] gave a half-inhibitory concentration (IC50) below 500 nM. Under `CN(C)C1CCN(C2CCN(c3ncnc4scc(-c5ccccc5)c34)CC2)CC1` [Example 222] stands below 500 nM; under `NC(=O)C1CCN(c2nc(N3CCC(CNC4CCC4)CC3)c3c(-c4ccccc4)csc3n2)C1` (stereo not drawn) [Example 128], 500 to 3000 nM. Under `c1ccc(-c2csc3ncnc(N4CCC(CNCc5ccco5)CC4)c23)cc1` [Example 61, 1-(2-furyl)-N-[[1-(5-phenylthieno[2,3-d]pyrimidin-4-yl)-4-piperidyl]methyl]methanamine] stands below 500 nM; under `CN1CCCC1CCNC(=O)C1CCN(c2ncnc3scc(-c4ccccc4)c23)CC1` (stereo not drawn) [Example 166, N-[2-(1-methylpyrrolidin-2-yl)ethyl]-1-(5-phenylthieno[2,3-d]pyrimidin-4-yl)piperidine-4-carboxamide], 500 to 3000 nM. `c1ccc(-c2csc3ncnc(N4CCC(CNCc5cccs5)CC4)c23)cc1` [Example 69, N-[[1-(5-phenylthieno[2,3-d]pyrimidin-4-yl)-4-piperidyl]methyl]-1-(2-thienyl)methanamine] registered an IC50 below 500 nM. Under `COCC1CCN(c2nc(N3CCN(C)CC3)nc3scc(-c4ccccc4)c23)CC1` [Example 174] stands below 500 nM; under `FC(F)(F)C1CCN(CC2CCN(c3ncnc4scc(-c5ccccc5)c34)CC2)CC1` [Example 99, 5-phenyl-4-[4-[[4-(trifluoromethyl)-1-piperidyl]methyl]-1-piperidyl]thieno[2,3-d]pyrimidine], 500 to 3000 nM.

`Fc1ccc(-c2csc3ncnc(N4CC5C(COCCN6CC[C@@H](F)C6)C5C4)c23)cc1` (stereo partly drawn) [Example 278] displayed an IC50 below 500 nM. `NC(=O)[C@@H]1CCN(CCN2CCN(c3ncc4c(-c5ccccc5)csc4n3)CC2)C1` [Example 150] came in with an IC50 of 500 to 3000 nM. The same measure for `CN1CCC(NC2CCN(c3ncnc4scc(-c5ccccc5)c34)CC2)CC1` [Example 223]: below 500 nM; for `Cc1sc2ncnc(N3CCC(CNCCC4CCCN4C)CC3)c2c1C` (stereo not drawn) [Example 220]: below 500 nM. Under `CN1CCC(N(C)CC2CCN(c3nc(NCCN4CCCC4)nc4scc(-c5ccccc5)c34)CC2)C1` (stereo not drawn) [Example 110] stands below 500 nM. Under `c1nc(N2CCC(COCCN3CCCC3)CC2)c2c(-c3ccc4c(c3)OCO4)csc2n1` [Example 319] stands below 500 nM; under `CN1CCC(N(C)CC2CCN(c3nc(CN4CCCC4=O)nc4scc(-c5ccccc5)c34)CC2)C1` (stereo not drawn) [Example 244, 1-[[4-[4-[[methyl-(1-methylpyrrolidin-3-yl)amino]methyl]-1-piperidyl]-5-phenyl-thieno[2,3-d]pyrimidin-2-yl]methyl]pyrrolidin-2-one], below 500 nM.
